US7135303B2, “Regulators of type-1 tumor necrosis factor receptor and other cytokine receptor shedding” (The United States of America as represented by the …, priority 2000, dated 2006)

Columns and labels:
Test in all cases: ARTS-1 aminopeptidase activity assay (amide bond hydrolysis of amino acid p-nitroanilide substrates, absorbance at 380 nm)
[1] = target: T1, recombinant GST-ARTS-1 fusion protein (Homo sapiens, UniProt Q9NZ08); assay type: biochemical; conditions: for Vmax: aa-pNA substrate 0.25 to 8 mM, 24 pmoles GST-ARTS-1, 50 mM Tris pH 7.5, room temperature, 1 hour; for Vmax / Km: Lineweaver-Burk; for kcat / Km: aa-pNA substrate with GST-ARTS-1; for aminopeptidase activity of recombinant GST-ARTS-1 against the amino acid substrate: acidic or basic amino acid p-nitroanilide substrates
T1 construct: ARTS-1 extracellular domain (i.e., the ectodomain; amino acids 30–941) was PCR amplified; made in house
Procedure: (§1) To accomplish this, commercially available amino acid p-nitroanilide substrates were incubated with purified GST-ARTS-1 fusion protein for 1 hour under conditions of linear enzyme activity over time. The rate of amide bond hydrolysis was determined by measuring the absorbance of the p-nitroaniline aminopeptidase reaction product at 380 nm. Each experimental point was run in triplicate and each determination utilized six concentrations of amino acid p-nitroanilide substrate. Kinetic constants were determined by Lineweaver-Burk analysis. Correlation coefficients for each line generated were greater than 0.997. Each amino acid p-nitroaniline substrate tested is shown in the left colurnr, along with its polar/non-polar/acidic/basic nature. Vmax is a measure of the theoretical enzyme maximal velocity, Km is the Michaelis-Menten constant for each ARTS-1/substrate combination, kcat is the first order rate constant (i.e., the turnover number) for the ARTS-1/substrate combination, and kcat/Km is the second order rate constant for the ARTS-1/substrate combination (i.e., a measure of overall catalytic efficiency).
(§2) Aminopeptidase activity of the recombinant GST-ARTS-1 fusion protein was assessed by determination of the rate of amide bond hydrolysis of amino acid p-nitroanilide substrates (Bachem). Amino acid p-nitroanilides (final concentrations 0.25 to 8 mM) were incubated at room temperature with 24 pmoles of GST-ARTS-1 fusion protein in 200 μl of 50 mM Tris, pH 7.5 for 1 hour. Reactions were terminated by addition of 280 μl of 3M sodium acetate (pH 5.2). The rate of amide bond hydrolysis was determined by measuring the absorbance of p-nitroaniline at 380 nm (See, Table 3, supra). Spontaneous hydrolysis of the substrate was corrected for by subtracting the absorbance of control incubations which were terminated immediately. Kinetic constants were determined by Lineweaver-Burk analysis. Each experimental point was assayed in triplicate and each determination utilized six concentrations of each amino acid p-nitroanilide substrate. Correlation coefficients for each line generated were greater than 0.997.

[2] = substrate: CC[C@H](C)[C@H](N)C(=O)Nc1ccc([N+](=O)[O-])cc1; assay type: biochemical, human; conditions: other: aa-pNA substrate with GST-ARTS-1; Lineweaver-Burk
Procedure: as §1, §2

[3] = substrate: N[C@@H](Cc1ccccc1)C(=O)Nc1ccc([N+](=O)[O-])cc1; assay type: biochemical, human; conditions: other: aa-pNA substrate with GST-ARTS-1; Lineweaver-Burk
Procedure: as §1, §2

[4] = substrate: NCC(=O)Nc1ccc([N+](=O)[O-])cc1; assay type: biochemical, human; conditions: other: aa-pNA substrate with GST-ARTS-1; Lineweaver-Burk
Procedure: as §1, §2

| Molecule | Vmax [1] | kcat [1] | aminopeptidase activity of recombinant GST-ARTS-1 against the amino acid substrate [1] | Km [1] | also measured |
| --- | --- | --- | --- | --- | --- |
| N[C@@H](CCC(=O)O)C(=O)Nc1ccc([N+](=O)[O-])cc1 [Glu] | No Activity | No Activity | no activity |  |  |
| NCCCC[C@H](N)C(=O)Nc1ccc([N+](=O)[O-])cc1 [Lys] | No Activity | No Activity | no activity |  |  |
| N=C(N)NCCC[C@H](N)C(=O)Nc1ccc([N+](=O)[O-])cc1 [Arg] | No Activity | No Activity | no activity |  |  |
| N[C@@H](Cc1ccccc1)C(=O)Nc1ccc([N+](=O)[O-])cc1 [Phe, phenylalanine p-nitroanilide] | 5.14 ± 0.04 pmol/pmol/min |  |  |  |  |
| CC(C)[C@H](N)C(=O)Nc1ccc([N+](=O)[O-])cc1 [Val] | 5.31 ± 0.31 pmol/pmol/min | 8.85 ± 0.52 s^−1 × 10^−2 |  | 5.69 ± 0.26 mM |  |
| C[C@H](N)C(=O)Nc1ccc([N+](=O)[O-])cc1 [Ala] | 26.18 ± 0.24 pmol/pmol/min | 43.63 ± 0.40 s^−1 × 10^−2 |  | 16.8 ± 0.18 mM |  |
| CSCC[C@H](N)C(=O)Nc1ccc([N+](=O)[O-])cc1 [Met] | 13.36 ± 0.75 pmol/pmol/min | 22.27 ± 1.25 s^−1 × 10^−2 |  | 7.71 ± 0.43 mM |  |
| N[C@@H](CS)C(=O)Nc1ccc([N+](=O)[O-])cc1 [Cys] | 8.95 ± 0.31 pmol/pmol/min | 14.92 ± 0.52 s^−1 × 10^−2 |  | 4.57 ± 0.2 mM |  |
| N[C@@H](CC(=O)O)C(=O)Nc1ccc([N+](=O)[O-])cc1 [Asp] | No Activity | No Activity | no activity |  |  |
| O=C(Nc1ccc([N+](=O)[O-])cc1)[C@@H]1CCCN1 [Pro] | 5.29 ± 0.08 pmol/pmol/min | 8.82 ± 0.13 s^−1 × 10^−2 |  | 4.68 ± 0.06 mM |  |
| CC[C@H](C)[C@H](N)C(=O)Nc1ccc([N+](=O)[O-])cc1 [Ile, isoleucine p-nitroanilide] | 5.81 ± 0.87 pmol/pmol/min |  |  |  |  |
| CC(C)C[C@H](N)C(=O)Nc1ccc([N+](=O)[O-])cc1 [Leu] | 9.45 ± 0.43 pmol/pmol/min | 15.75 ± 0.72 s^−1 × 10^−2 |  | 5.26 ± 0.25 mM |  |
| NCC(=O)Nc1ccc([N+](=O)[O-])cc1 [Gly, glycine p-nitroanilide] | 8.67 ± 0.05 pmol/pmol/min |  |  |  |  |
| N[C@@H](Cc1cnc[nH]1)C(=O)Nc1ccc([N+](=O)[O-])cc1 [His] | No Activity | No Activity | no activity |  |  |
| recombinant GST-ARTS-1 fusion protein (Homo sapiens) (protein, ARTS-1 extracellular domain (i.e., the ectodomain; amino acids 30–941) was PCR amplified; made in house) SWCQSTEASPKRSDGTPFPWNKIRLPEYVIPVHYDLLIHANLTTLTFWGTTKVEITASQPTSTIILHSHHLQISRATLRKGAGERLSEEPLQVLEHPRQEQIALLAPEPLLVGLPYTVVIHYAGNLSETFHGFYKSTYRTKEGELRILASTQFEPTAARMAFPCFDEPAFKASFSIKIRREPRHLAISNMPLVKSVTVAEGLIEDHFDVTVKMSTYLVAFIISDFESVSKITKSGVKVSVYAVPDKINQADYALDAAVTLLEFYEDYFSIPYPLPKQDLAAIPDFQSGAMENWGLTTYRESALLFDAEKSSASSKLGITMTVAHELAHQWFGNLVTMEWWNDLWLNEGFAKFMEFVSVSVTHPELKVGDYFFGKCFDAMEVDALNSSHPVSTPVENPAQIREMFDDVSYDKGACILNMLREYLSADAFKSGIVQYLQKHSYKNTKNEDLWDSMASICPTDGVKGMDGFCSRSQHSSSSSHWHQEGVDVKTMMNTWTLQKGFPLITITVRGRNVHMKQEHYMKGSDGAPDTGYLWHVPLTFITSKSDMVHRFLLKTKTDVLILPEEVEWIKFNVGMNGYYIVHYEDDGWDSLTGLLKGTHTAVSSNDRASLINNAFQLVSIGKLSIEKALDLSLYLKHETEIMPVFQGLNELIPMYKLMEKRDMNEVETQFKAFLIRLLRDLIDKQTWTDEGSVSERMLRSQLLLLACVHNYQPCVQRAEGYFRKWKESNGNLSLPVDVTLAVFAVGAQSTEGWDFLYSKYQFSLSSTEKSQIEFALCRTQNKEKLQWLLDESFKGDKIKTQEFPQILTLIGRNPVGYPLAWQFLRKNWNKLVQKFELGSSSIAHMVMGTTNQFSTRTRLEEVKGFFSSLKENGSQLRCVQQTIETIEENIGWMDKNFDKIRVWLQSEKLERM |  |  |  |  | Km [2]: 1.67 ± 0.02 mM; kcat [2]: 0.0968 ± 0.0015 s⁻¹; kcat/Km [2]: 58 M⁻¹ s⁻¹; Km [3]: 1.66 ± 0.03 mM; kcat [3]: 0.0857 ± 0.0006 s⁻¹; kcat/Km [3]: 51.6 M⁻¹ s⁻¹; Km [4]: 3.67 ± 0.03 mM; kcat [4]: 0.1445 ± 0.0008 s⁻¹; kcat/Km [4]: 39.4 M⁻¹ s⁻¹ |
